From article PMC5923171, “Novel Zinc-Attenuating Compounds as Potent Broad-Spectrum Antifungal Agents with In Vitro and In Vivo Efficacy” (Antimicrobial Agents and Chemotherapy, 2018)
Converted amounts (≈) assume the structure as drawn.

Tests used:
[1] = test system: A. fumigatus; conditions: combination with amphotericin B lipid complex (ABLC), compared with either agent alone; cited from earlier work
[2] = test system: A. fumigatus AF721 (ΔzrfA ΔzrfB ΔzrfC); assay: Growth capacity in sRPMI medium, 24-well plates; assay type: cell-based, Aspergillus fumigatus
[3] = test system: Aspergillus flavus ATCC 15547; assay: Antifungal susceptibility testing (MIC); assay type: cell-based; conditions: ATCC15547, no visible growth, 48 to 72 h, 34°C
Method: (§1) Antifungal susceptibility testing was carried out as described previously ([38], [39]), with a few modifications. Briefly, for each yeast or mold growth inhibition assay, frozen stocks of yeast cells or spores were diluted to a final concentration of 0.5 × 10^5 to 2.5 × 10^5 CFU/ml in sterile water. ZAC989, ZAC307, and ZAC623 were dissolved in DMSO to 10 mM stocks from which half-log serial dilutions were prepared. Growth assays were subsequently performed by pipetting 3 μl of compound dissolved in DMSO (giving a final concentration of 1.5% DMSO), 100 μl of cell-spore suspension, and 97 μl of 2× RPMI medium (20.8 g/liter of RPMI 1640 medium, 69.06 g/liter of morpholinepropanesulfonic acid [MOPS], 36 g/liter of glucose) into a microtiter plate that was incubated for 24 h (yeasts) or 48 to 72 h (molds) at 34°C. Fungal growth was determined spectrophotometrically by optical density reading of each well at a wavelength of 492 nm on a Victor X5 (Perkin-Elmer) plate reader. […] Standard errors between repeated experiments were generally below 5%. The growth effect of exogenous addition of various divalent metals was evaluated by performing the antifungal susceptibility assay in the presence of 5 μM ZAC989 or ZAC307 and with increasing concentrations (0.003 to 50 μM) of ZnSO4, CuSO4, (NH4)2Fe(SO4)2, MgCl2, and CaCl2.

[4] = test system: Rhizopus microsporus ATCC 66276; assay: Antifungal susceptibility testing (MIC); assay type: cell-based; conditions: ATCC66276, no visible growth, 48 to 72 h, 34°C
Method: as §1

[5] = test system: C. tropicalis Ct016; assay: Antifungal susceptibility testing (MIC); assay type: cell-based; conditions: Candida tropicalis, at least 50% growth inhibition, RPMI, 24 h, 34°C
Method: as §1

[6] = test system: Aspergillus fumigatus ATCC 13073; assay: Antifungal susceptibility testing (MIC); assay type: cell-based; conditions: ATCC13073, no visible growth, 48 to 72 h, 34°C
Method: as §1

[7] = test system: Aspergillus terreus At070; assay: Antifungal susceptibility testing (MIC); assay type: cell-based; conditions: no visible growth, 48 to 72 h, 34°C
Method: as §1

[8] = test system: Mucor indicus ATCC MYA-4678; assay: Antifungal susceptibility testing (MIC); assay type: cell-based; conditions: no visible growth, 48 to 72 h, 34°C
Method: as §1

[9] = test system: C. krusei ATCC 6258; assay: Antifungal susceptibility testing (MIC); assay type: cell-based, Candida krusei; conditions: Pichia kudriavzevii, ATCC6258; at least 50% growth inhibition, RPMI, 24 h, 34°C
Method: as §1

[10] = test system: invasive pulmonary aspergillosis; design: method as in PMID 26438863; conditions: after 7 days, compared to vehicle treatment; cited from earlier work
[11] = test system: A. fumigatus; design: method as in PMID 27401578; conditions: cited from earlier work

## O=C(O)CN(CCN(CC(=O)O)CC(=O)O)CC(=O)O [EDTA]
[1]
  survival times and tissue burden: improved survival times and a lower tissue burden of A. fumigatus

## Cc1cc(O)n(-c2cc(N3CC[C@H](Oc4cnccc4C#N)C3)ncn2)n1 [ZAC989, 3-[(3S)-1-[6-(5-hydroxy-3-methyl-pyrazol-1-yl)pyrimidin-4-yl]pyrrolidin-3-yl]oxy-pyridine-4-carbonitrile]
[2]
  growth capacity in the presence of 50 μM zinc (in words): noticeably inhibited the growth capacity of AF721
[3]
  MIC: 5.1 mg/L (≈ 14 µM)
[4]
  MIC: 0.5 mg/L (≈ 1.38 µM)
[5]
  MIC: 0.9 mg/L (≈ 2.48 µM)
[6]
  MIC: 5.4 mg/L (≈ 14.9 µM)
[7]
  MIC: 1.6 mg/L (≈ 4.4 µM)
[8]
  MIC: 1.1 mg/L (≈ 3.03 µM)
[9]
  MIC: 0.8 mg/L (≈ 2.2 µM)

## c1ccc(CN(CCN(Cc2ccccn2)Cc2ccccn2)Cc2ccccn2)nc1 [TPEN, N,N,N’,N’-tetrakis(2-pyridylmethyl)-ethylenediamine]
[10]
  survival: significantly increase survival
[11]; in combination with caspofungin, compared to either drug alone, murine models of invasive aspergillosis
  survival times: significantly increased survival times
[11]; monotherapy
  survival and fungal burden: significant improvements in survival with concomitant reduction in fungal burden

## CN(C)c1cc(-n2nc(-c3ccccc3)cc2O)ncn1 [ZAC307, 2-[6-(dimethylamino)pyrimidin-4-yl]-5-phenyl-pyrazol-3-ol]
[3]
  MIC: 1.3 mg/L (≈ 4.62 µM)
[4]
  MIC: 0.4 mg/L (≈ 1.42 µM)
[5]
  MIC: 0.4 mg/L (≈ 1.42 µM)
[6]
  MIC: 4 mg/L (≈ 14.2 µM)
[7]
  MIC: 1.3 mg/L (≈ 4.62 µM)
[8]
  MIC: 1.3 mg/L (≈ 4.62 µM)
[9]
  MIC: 0.4 mg/L (≈ 1.42 µM)
